# Tested on: LG0567-F671-PDC complex spheroids viability
# Assay: Anticancer human tumor LG0567-F671-PDC patient-derived lung adenocarcinoma cell line growth inhibition [RAS]
# Conditions: for IC50: curve of first compound; for viability, T/C: stronger effect = lower value
# How it was run: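 Multi-cell-type spheroids: tumor cells plus HUVEC endothelial cells and mesenchymal stem cells. RAS-pathway inhibitors were combined with targeted agents, each dosed in half-log steps down from clinical Cmax, or from 10 microM when Cmax was unknown.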
# [1] = second compound 0.000949 µM, first compound 0.0316 µM
# [2] = second compound 0.000949 µM, first compound 0.1 µM
# [3] = second compound 0.000949 µM, first compound 0.316 µM
# [4] = second compound 0.000949 µM, first compound 1 µM
# [5] = second compound 0.000949 µM, first compound 3.16 µM
# [6] = second compound 0.000949 µM, first compound 10 µM
# [7] = second compound 0.003 µM, first compound 0.0316 µM
# [8] = second compound 0.003 µM, first compound 0.1 µM
# [9] = second compound 0.003 µM, first compound 0.316 µM
# [10] = second compound 0.003 µM, first compound 1 µM
# [11] = second compound 0.003 µM, first compound 3.16 µM
# [12] = second compound 0.003 µM, first compound 10 µM
# [13] = second compound 0.00949 µM, first compound 0.0316 µM
# [14] = second compound 0.00949 µM, first compound 0.1 µM
# [15] = second compound 0.00949 µM, first compound 0.316 µM
# [16] = second compound 0.00949 µM, first compound 1 µM
# [17] = second compound 0.00949 µM, first compound 3.16 µM
# [18] = second compound 0.00949 µM, first compound 10 µM
# [19] = second compound 0.03 µM, first compound 0.0316 µM
# [20] = second compound 0.03 µM, first compound 0.1 µM
# [21] = second compound 0.03 µM, first compound 0.316 µM
# [22] = second compound 0.03 µM, first compound 1 µM
# [23] = second compound 0.03 µM, first compound 3.16 µM
# [24] = second compound 0.03 µM, first compound 10 µM
# [25] = second compound 0.0949 µM, first compound 0.0316 µM
# [26] = second compound 0.0949 µM, first compound 0.1 µM
# [27] = second compound 0.0949 µM, first compound 0.316 µM
# [28] = second compound 0.0949 µM, first compound 1 µM
# [29] = second compound 0.0949 µM, first compound 3.16 µM
# [30] = second compound 0.0949 µM, first compound 10 µM
# [31] = second compound 0.3 µM, first compound 0.0316 µM
# [32] = second compound 0.3 µM, first compound 0.1 µM
# [33] = second compound 0.3 µM, first compound 0.316 µM
# [34] = second compound 0.3 µM, first compound 1 µM
# [35] = second compound 0.3 µM, first compound 3.16 µM
# [36] = second compound 0.3 µM, first compound 10 µM
# 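Note: spheroids exposed to compound for seven days before readout.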
# 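Throughout, for IC50: luminescence signal used as a proxy for viable cells.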
smiles,measurement,setting,value
Nc1ccn(C2OC(CO)C(O)C2(F)F)c(=O)n1 (stereo unspecified) + C#Cc1c(F)ccc2cc(O)cc(-c3ncc4c(N5CC6CCC(C5)N6)nc(OCC56CCCN5CC(F)C6)nc4c3F)c12,IC50,second compound 0.0316 µM,> 1 µM
same,IC50,second compound 0.1 µM,> 1 µM
same,IC50,second compound 0.316 µM,< 0.00316 µM
same,IC50,second compound 1 µM,< 0.00316 µM
same,IC50,second compound 3.16 µM,< 0.00316 µM
same,IC50,second compound 10 µM,< 0.00316 µM
same,"viability, T/C","second compound 0.0316 µM, first compound 0.00316 µM",76.6%
same,"viability, T/C","second compound 0.0316 µM, first compound 0.01 µM",74.5%
same,"viability, T/C","second compound 0.0316 µM, first compound 0.0316 µM",60.8%
same,"viability, T/C","second compound 0.0316 µM, first compound 0.1 µM",59.8%
same,"viability, T/C","second compound 0.0316 µM, first compound 0.316 µM",63.2%
same,"viability, T/C","second compound 0.0316 µM, first compound 1 µM",59.5%
same,"viability, T/C","second compound 0.1 µM, first compound 0.00316 µM",70.4%
same,"viability, T/C","second compound 0.1 µM, first compound 0.01 µM",71.7%
same,"viability, T/C","second compound 0.1 µM, first compound 0.0316 µM",52.1%
same,"viability, T/C","second compound 0.1 µM, first compound 0.1 µM",61.5%
same,"viability, T/C","second compound 0.1 µM, first compound 0.316 µM",59.8%
same,"viability, T/C","second compound 0.1 µM, first compound 1 µM",59.2%
same,"viability, T/C","second compound 0.316 µM, first compound 0.00316 µM",46.8%
same,"viability, T/C","second compound 0.316 µM, first compound 0.01 µM",46.7%
same,"viability, T/C","second compound 0.316 µM, first compound 0.0316 µM",47.6%
same,"viability, T/C","second compound 0.316 µM, first compound 0.1 µM",46.5%
same,"viability, T/C","second compound 0.316 µM, first compound 0.316 µM",49.4%
same,"viability, T/C","second compound 0.316 µM, first compound 1 µM",44.8%
same,"viability, T/C","second compound 1 µM, first compound 0.00316 µM",26.7%
same,"viability, T/C","second compound 1 µM, first compound 0.01 µM",27.3%
same,"viability, T/C","second compound 1 µM, first compound 0.0316 µM",25.5%
same,"viability, T/C","second compound 1 µM, first compound 0.1 µM",26.9%
same,"viability, T/C","second compound 1 µM, first compound 0.316 µM",27.9%
same,"viability, T/C","second compound 1 µM, first compound 1 µM",27.5%
same,"viability, T/C","second compound 3.16 µM, first compound 0.00316 µM",16.1%
same,"viability, T/C","second compound 3.16 µM, first compound 0.01 µM",16.4%
same,"viability, T/C","second compound 3.16 µM, first compound 0.0316 µM",16.8%
same,"viability, T/C","second compound 3.16 µM, first compound 0.1 µM",16%
same,"viability, T/C","second compound 3.16 µM, first compound 0.316 µM",16.4%
same,"viability, T/C","second compound 3.16 µM, first compound 1 µM",14.8%
same,"viability, T/C","second compound 10 µM, first compound 0.00316 µM",8.86%
same,"viability, T/C","second compound 10 µM, first compound 0.01 µM",9.45%
same,"viability, T/C","second compound 10 µM, first compound 0.0316 µM",9%
same,"viability, T/C","second compound 10 µM, first compound 0.1 µM",8.04%
same,"viability, T/C","second compound 10 µM, first compound 0.316 µM",8.48%
same,"viability, T/C","second compound 10 µM, first compound 1 µM",9.14%
CC(=O)OC12COC1CC(O)C1(C)C(=O)C(O)C3=C(C)C(OC(=O)C(O)C(NC(=O)OC(C)(C)C)c4ccccc4)CC(O)(C(OC(=O)c4ccccc4)C21)C3(C)C (stereo unspecified) + CCn1c(-c2cccnc2C(C)OC)c2c3cc(ccc31)N1CCOC(CC(NC(=O)C(C(C)C)N(C)C(=O)C3(F)CCN(C(=O)C#CC(C)(C)N(C)C)CC3)C(=O)N3CCCC(N3)C(=O)OCC(C)(C)C2)C1,IC50,second compound 0.000949 µM,< 0.0316 µM
same,IC50,second compound 0.003 µM,< 0.0316 µM
same,IC50,second compound 0.00949 µM,< 0.0316 µM
same,IC50,second compound 0.03 µM,< 0.0316 µM
same,IC50,second compound 0.0949 µM,< 0.0316 µM
same,IC50,second compound 0.3 µM,< 0.0316 µM
same,"viability, T/C",[1],12.9%
same,"viability, T/C",[2],10.5%
same,"viability, T/C",[3],11%
same,"viability, T/C",[4],11.9%
same,"viability, T/C",[5],11.6%
same,"viability, T/C",[6],8.54%
same,"viability, T/C",[7],13.3%
same,"viability, T/C",[8],11.5%
same,"viability, T/C",[9],11.2%
same,"viability, T/C",[10],11.5%
same,"viability, T/C",[11],11.5%
same,"viability, T/C",[12],9.41%
same,"viability, T/C",[13],11.1%
same,"viability, T/C",[14],10.2%
same,"viability, T/C",[15],12.1%
same,"viability, T/C",[16],10.1%
same,"viability, T/C",[17],11.2%
same,"viability, T/C",[18],8.58%
same,"viability, T/C",[19],10.2%
same,"viability, T/C",[20],10.9%
same,"viability, T/C",[21],10.7%
same,"viability, T/C",[22],9.38%
same,"viability, T/C",[23],10.1%
same,"viability, T/C",[24],7.46%
same,"viability, T/C",[25],8.76%
same,"viability, T/C",[26],7.61%
same,"viability, T/C",[27],8.1%
same,"viability, T/C",[28],9.57%
same,"viability, T/C",[29],8.69%
same,"viability, T/C",[30],6.64%
same,"viability, T/C",[31],7.24%
same,"viability, T/C",[32],6.04%
same,"viability, T/C",[33],6.63%
same,"viability, T/C",[34],6.97%
same,"viability, T/C",[35],7.51%
same,"viability, T/C",[36],5.29%
CC1(O)CCCC1n1c(=O)c(C(F)F)cc2cnc(NC3CCN(S(C)(=O)=O)CC3)nc21 (stereo unspecified) + CCn1c(-c2cc(N3CCN(C)CC3)cnc2C(C)OC)c2c3cc(ccc31)-c1csc(n1)CC(NC(=O)C1CC1C)C(=O)N1CCCC(N1)C(=O)OCC(C)(C)C2,IC50,second compound 0.000949 µM,< 0.0316 µM
same,IC50,second compound 0.003 µM,< 0.0316 µM
same,IC50,second compound 0.00949 µM,< 0.0316 µM
same,IC50,second compound 0.03 µM,< 0.0316 µM
same,IC50,second compound 0.0949 µM,< 0.0316 µM
same,IC50,second compound 0.3 µM,< 0.0316 µM
same,"viability, T/C",[1],29.6%
same,"viability, T/C",[2],27.7%
same,"viability, T/C",[3],34.2%
same,"viability, T/C",[4],35.2%
same,"viability, T/C",[5],36.3%
same,"viability, T/C",[6],24.7%
same,"viability, T/C",[7],11.8%
same,"viability, T/C",[8],15.6%
same,"viability, T/C",[9],16.7%
same,"viability, T/C",[10],17.6%
same,"viability, T/C",[11],18.6%
same,"viability, T/C",[12],14.1%
same,"viability, T/C",[13],7.99%
same,"viability, T/C",[14],8.49%
same,"viability, T/C",[15],10.3%
same,"viability, T/C",[16],10.8%
same,"viability, T/C",[17],11.8%
same,"viability, T/C",[18],8.83%
same,"viability, T/C",[19],4.53%
same,"viability, T/C",[20],5.49%
same,"viability, T/C",[21],6.91%
same,"viability, T/C",[22],7.53%
same,"viability, T/C",[23],8.07%
same,"viability, T/C",[24],5.96%
same,"viability, T/C",[25],4.61%
same,"viability, T/C",[26],4.51%
same,"viability, T/C",[27],5.52%
same,"viability, T/C",[28],6.15%
same,"viability, T/C",[29],6.66%
same,"viability, T/C",[30],5%
same,"viability, T/C",[31],3.25%
same,"viability, T/C",[32],3.76%
same,"viability, T/C",[33],4.31%
same,"viability, T/C",[34],5.52%
same,"viability, T/C",[35],5.43%
same,"viability, T/C",[36],4.68%

# — PubChem BioAssay AID2060889 (Molecular Pharmacology Branch, DTP, NCI, 2025)
